According to BindingDB's records for doi:10.7270/Q2862DWJ (Nmmlsc, 2009):

Biological target: Isoform Bcl-X(L) of Bcl-2-like protein 1 (Bcl-xL) (Homo sapiens, UniProt Q07817)
Assay: Bcl-XL/Bim binding disruption – biochemical, dose response, multiplexed, HTS hits, confirmation (AID 2084)
Conditions: inactive by the depositor's call

Isoform Bcl-X(L) of Bcl-2-like protein 1 (Bcl-xL), sequence (Q07817 whole entry G70A, canonical isoform): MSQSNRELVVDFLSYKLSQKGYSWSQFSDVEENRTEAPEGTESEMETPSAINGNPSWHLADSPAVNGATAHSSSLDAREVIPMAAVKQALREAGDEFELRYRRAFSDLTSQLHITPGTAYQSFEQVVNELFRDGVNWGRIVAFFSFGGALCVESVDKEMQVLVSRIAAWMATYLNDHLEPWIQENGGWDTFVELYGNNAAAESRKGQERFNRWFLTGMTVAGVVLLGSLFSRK

SMILES | EC50 [µM]
O=c1[nH]c(O)c(Cc2ccc(-c3cc(Cl)ccc3[N+](=O)[O-])o2)c(=O)[nH]1 | 26.4
CNC1CCC(Br)CC(C(=O)C=Cc2cccc(OC)c2OC)C1=O (stereo not given) [4-bromo-2-[(E)-3-(2,3-dimethoxyphenyl)-1-oxoprop-2-enyl]-7-(methylamino)-1-cycloheptanone] | 45.5
Cc1ccc(-c2nc3c(c(=O)[nH]c(=O)n3Cc3ccccc3)n2C)o1 [7-methyl-8-(5-methyl-2-furanyl)-3-(phenylmethyl)purine-2,6-dione] | 43.5
Clc1nc(NCc2cccnc2)nc(N2CCOCC2)n1 [MLS000121154] | 15.1
COc1ccc(CCNC(=O)c2ccc3nc(-c4ccco4)c(-c4ccco4)nc3c2)cc1OC [N-[2-(3,4-dimethoxyphenyl)ethyl]-2,3-di-2-furylquinoxaline-6-carboxamide] | 18.4
